Laboratory results published in US20080170993A1, “THYMIDINE ANALOGS FOR IMAGING” (priority 2006, published 2008).

Target: T1, recombinant thymidine kinase 1 (TK-1) (Homo sapiens, UniProt P04183)
T1 sequence (P04183 1-234): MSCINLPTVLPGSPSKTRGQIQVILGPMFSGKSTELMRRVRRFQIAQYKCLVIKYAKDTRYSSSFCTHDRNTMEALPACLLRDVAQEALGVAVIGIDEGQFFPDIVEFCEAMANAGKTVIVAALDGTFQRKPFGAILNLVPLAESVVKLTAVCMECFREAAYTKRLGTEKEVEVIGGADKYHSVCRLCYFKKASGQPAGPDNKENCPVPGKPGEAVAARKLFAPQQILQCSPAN
Details: cold 19F analogues; 100 μM ATP+P-32-ATP, 10-60 ng thymidine kinase; TLC, phosphoimager; thymidine 100%

| SMILES | In vitro-Phosphorylation |
| --- | --- |
| Cc1cn([C@H]2C[C@H](O)[C@@H](CO)O2)c(=O)n(CCCCCCF)c1=O [TD-2] | 30% ± 3.7% |
| Cc1cn([C@H]2C[C@H](F)[C@@H](CO)O2)c(=O)[nH]c1=O [FLT, 3′-[F-18]fluoro-3′-deoxythymidine, reference compound] | 58% ± 11.9% |
| Cc1cn([C@H]2C[C@H](O)[C@@H](CO)O2)c(=O)n(CCCCNC(=O)c2ccc(F)c(C#N)c2)c1=O [TD-9] | 21% ± 4.6% |
| Cc1cn([C@H]2C[C@H](O)[C@@H](CO)O2)c(=O)n(CCCCCCNC(=O)c2ccc(F)c(C#N)c2)c1=O [TD-8] | 41% ± 9.5% |
| Cc1cn([C@H]2C[C@H](O)[C@@H](CO)S2)c(=O)[nH]c1=O | 70% ± 9.3% |
| Cc1cn([C@H]2C[C@H](O)[C@@H](CO)O2)c(=O)n(CCCNC(=O)CCc2cccc([Si](F)(C(C)C)C(C)C)c2)c1=O | 15% ± 6.1% |
| Cc1cn([C@H]2C[C@H](O)[C@@H](CO)O2)c(=O)n(CCCCF)c1=O [TD-1] | 13% ± 5.4% |
| Cc1cn([C@H]2C[C@H](O)[C@@H](CO)O2)c(=O)n(CCCNC(=O)Cc2ccc([Si](F)(C(C)C)C(C)C)cc2)c1=O | 17% ± 1.5% |

The remaining lines, values ahead:

| In vitro-Phosphorylation | SMILES |
| --- | --- |
| 17% ± 10.2% | Cc1cn([C@H]2C[C@H](O)[C@@H](CO)O2)c(=O)n(CCCCCCNC(=O)CNC(=O)C(CF)NS(=O)(=O)c2c(C(C)C)cc(C(C)C)cc2C(C)C)c1=O (some centres unmarked) |
| 23% ± 8.0% | Cc1cn([C@H]2C[C@H](O)[C@@H](CO)O2)c(=O)n(CC#CCF)c1=O |
| 12% ± 2.8% | Cc1cn([C@H]2C[C@H](O)[C@@H](CO)O2)c(=O)n(CCCCN(C)C(=O)c2ccc(F)c(C#N)c2)c1=O |
| 36% ± 6.5% | Cc1cn([C@H]2C[C@H](O)[C@@H](CO)O2)c(=O)n(CCCCCCCNC(=O)c2ccc(F)c(C#N)c2)c1=O |
| 26% ± 4.0% | Cc1cn([C@H]2C[C@H](O)[C@@H](CO)S2)c(=O)n(CCCCCCF)c1=O |
| 12% ± 1.1% | Cc1cn([C@H]2C[C@H](O)[C@@H](CO)O2)c(=O)n(CCCNC(=O)c2ccc(F)c(C(F)(F)F)c2)c1=O |
| 34% ± 18.6% | Cc1cn([C@H]2C[C@H](O)[C@@H](CO)O2)c(=O)n(Cc2ccc(F)cc2)c1=O |
| 19% ± 3.7% | Cc1cn([C@H]2C[C@H](O)[C@@H](CO)O2)c(=O)n(CCNC(=O)CNC(=O)C(CF)NS(=O)(=O)c2c(C(C)C)cc(C(C)C)cc2C(C)C)c1=O (some centres unmarked) |
| 49% ± 9.9% | N#Cc1cc(C(=O)NCCCCCCn2c(=O)c(C(F)(F)F)cn([C@H]3C[C@H](O)[C@@H](CO)O3)c2=O)ccc1F |
